The source of these data is ChEMBL document CHEMBL4834428 (J Med Chem, 2021).

Assay [1] concerns the target T1, NAD-dependent protein deacetylase sirtuin-2 (Homo sapiens, UniProt Q8IXJ6).
T1 sequence (Q8IXJ6 whole entry): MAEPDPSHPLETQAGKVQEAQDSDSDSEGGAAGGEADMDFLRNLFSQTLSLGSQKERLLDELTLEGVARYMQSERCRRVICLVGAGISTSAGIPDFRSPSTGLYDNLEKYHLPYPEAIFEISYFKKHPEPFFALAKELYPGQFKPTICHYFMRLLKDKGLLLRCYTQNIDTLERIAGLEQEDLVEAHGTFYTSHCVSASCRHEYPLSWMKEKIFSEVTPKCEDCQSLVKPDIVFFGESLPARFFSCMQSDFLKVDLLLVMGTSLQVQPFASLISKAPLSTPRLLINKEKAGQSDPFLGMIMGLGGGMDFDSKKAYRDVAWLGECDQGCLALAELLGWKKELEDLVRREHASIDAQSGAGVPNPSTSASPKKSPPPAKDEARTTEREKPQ
In words: Inhibition of His6-tagged/TEV fused SIRT2 (unknown origin) expressed in Escherichia coli BL21 (DE3) preincubated for 15 mins followed by NAD+ addition and measured after 30 mins by FLucK529Ac based luminescence assay.

Assay [2] deals with T2, NAD-dependent protein deacetylase sirtuin-1 (Homo sapiens, UniProt Q96EB6).
T2 sequence (Q96EB6 whole entry): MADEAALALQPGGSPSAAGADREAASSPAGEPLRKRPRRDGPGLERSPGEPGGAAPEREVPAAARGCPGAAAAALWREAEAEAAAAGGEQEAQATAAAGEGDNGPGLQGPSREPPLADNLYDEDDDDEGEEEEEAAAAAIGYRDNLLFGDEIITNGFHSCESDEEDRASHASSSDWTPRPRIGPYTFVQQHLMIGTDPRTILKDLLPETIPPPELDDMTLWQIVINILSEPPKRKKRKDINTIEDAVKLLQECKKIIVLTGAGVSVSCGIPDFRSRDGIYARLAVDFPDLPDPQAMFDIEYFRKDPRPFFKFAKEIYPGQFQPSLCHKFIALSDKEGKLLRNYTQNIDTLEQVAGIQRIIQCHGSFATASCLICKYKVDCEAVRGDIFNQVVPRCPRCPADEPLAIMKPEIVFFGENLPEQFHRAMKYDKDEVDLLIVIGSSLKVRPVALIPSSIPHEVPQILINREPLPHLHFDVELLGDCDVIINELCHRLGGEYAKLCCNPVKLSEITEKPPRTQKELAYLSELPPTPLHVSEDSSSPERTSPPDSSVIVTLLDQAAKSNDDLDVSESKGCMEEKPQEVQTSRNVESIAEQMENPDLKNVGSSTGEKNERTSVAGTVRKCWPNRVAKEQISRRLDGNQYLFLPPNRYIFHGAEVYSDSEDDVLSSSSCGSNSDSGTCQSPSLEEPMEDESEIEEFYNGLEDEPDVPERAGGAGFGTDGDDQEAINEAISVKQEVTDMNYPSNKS
Description: Uncompetitive inhibition of His6-tagged SIRT1 (unknown origin) expressed in Escherichia coli BL21 (DE3) assessed as inhibition constant measured every 2 mins for 30 mins in presence of NAD+ and ATP by FLucK549Ac based Michaelis-Menten analysis

Assay [3] deals with T2, NAD-dependent protein deacetylase sirtuin-1. This is another data set of the same source.
Description: Inhibition of His6-tagged SIRT1 (unknown origin) expressed in Escherichia coli BL21 (DE3) preincubated for 15 mins followed by NAD+ addition and measured after 30 mins by FLucK529Ac based luminescence assay
Assay [4] has as its target T3, NAD-dependent protein deacetylase sirtuin-3, mitochondrial (Homo sapiens, UniProt Q9NTG7).
T3 sequence (Q9NTG7 whole entry): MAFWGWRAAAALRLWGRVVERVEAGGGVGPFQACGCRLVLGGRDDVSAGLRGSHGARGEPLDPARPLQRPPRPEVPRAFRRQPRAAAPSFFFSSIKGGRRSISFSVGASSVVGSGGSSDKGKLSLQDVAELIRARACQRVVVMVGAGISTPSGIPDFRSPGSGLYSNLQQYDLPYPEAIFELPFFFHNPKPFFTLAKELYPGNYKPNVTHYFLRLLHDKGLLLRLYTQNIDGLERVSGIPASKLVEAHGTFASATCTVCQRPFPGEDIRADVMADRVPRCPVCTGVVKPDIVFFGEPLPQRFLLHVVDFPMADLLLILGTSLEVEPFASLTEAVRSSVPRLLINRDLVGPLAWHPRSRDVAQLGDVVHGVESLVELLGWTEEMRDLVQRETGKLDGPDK
In words: Inhibition of His6-tagged/TEV fused SIRT3 (unknown origin) expressed in Escherichia coli BL21 (DE3) preincubated for 15 mins followed by NAD+ addition and measured after 30 mins by FLucK529Ac based luminescence assay.

pIC50, pKi: −log10 of the molar value. Some results are limits rather than exact numbers.

Broadly, the pIC50 is the IC50 on a negative log10 scale, so that one unit is a factor of ten. A low value points to a large IC50. A word on the pKi: it is −log10 of the Ki, conventionally taken in molar units. Turning to `N#Cc1ccccc1CN1CC(C(N)=O)Oc2ccccc21` (stereo in doubt; 4.27), the pIC50 in assay [1] was 4.42; in assay [3] it was 6.66; in assay [4] it was below 4.22. The compound also had a negative logarithm of the Ki (pKi) in assay [2] of 6.40.
Consider `CC(C)(C)OC(=O)Nc1nc(CN2CC(C(N)=O)Oc3ccccc32)cs1` (configuration not stated), for which the figures for the pIC50 in assay [1], in assay [3] and in assay [4] were below 4.22, 5.25 and below 4.22, respectively.
In the case of `COC(=O)c1ccc(CN2CC(C(N)=O)Oc3ccccc32)cc1` (configuration not stated), the values for the pIC50 in assay [1], in assay [3] and in assay [4] were below 4.22, 5.46 and below 4.22, respectively.
For the compound `NC(=O)C1CN(Cc2ccc3c(c2)OCO3)c2ccccc2O1` (configuration not stated), the results for the pIC50 in assay [1], in assay [3] and in assay [4] were 4.59, 5.72 and below 4.22, respectively.
On to `NC(=O)C1CN(C(=O)c2ccc(CCl)cc2)c2ccccc2O1` (configuration not stated), for which the pIC50 in assay [1] is below 4.22; in assay [3] it was 4.31; in assay [4], below 4.22.
For the compound `N#Cc1cccc(NC(=O)N2CC(C(N)=O)Oc3ccccc32)c1` (configuration not stated), the pIC50 in assay [1], in assay [3] and in assay [4] was below 4.22 in each case.
For the compound `NC(=O)C1CN(Cc2ccccc2C(F)(F)F)c2ccccc2O1` (configuration not stated), the negative logarithm of the IC50 (pIC50) in assay [1] is 4.60; in assay [3], 6.01; in assay [4], below 4.22.
On the same counts, the results for `CS(=O)(=O)N1CC(C(N)=O)Oc2ccccc21` (configuration not stated) are below 4.22, below 4.22 and below 4.22.
On the same counts, the results for `CNC(=O)C1CN(Cc2ccccc2)c2ccccc2O1` (configuration not stated) are below 4.22, below 4.22 and below 4.22.
In the case of `NC(=O)C1CN(Cc2cc(C(F)(F)F)cc(C(F)(F)F)c2)c2ccccc2O1` (configuration not stated), the results for the pIC50 in assay [1], in assay [3] and in assay [4] were 6.28, 5.22 and below 4.22, respectively.
On the same counts, the results for `NC(=O)C1CN(Cc2ccccc2F)c2ccccc2O1` (configuration not stated) are 4.45, 5.75 and below 4.22.
Turning to `Cc1ccccc1CN1CC(C(N)=O)Oc2ccccc21` (configuration not stated), the negative-log IC50 (pIC50) in assay [1] is 4.65; in assay [3] it was 5.60; in assay [4], below 4.22.
For `NC(=O)C1CN(Cc2ccccc2C(=O)O)c2ccccc2O1` (configuration not stated), in that order: below 4.22, 4.86 and below 4.22.
On the same counts, the results for `CC(=O)N1CC(C(N)=O)Oc2ccccc21` (configuration not stated) are below 4.22, below 4.22 and below 4.22.
On to `CC(C)CC(=O)N1CC(C(N)=O)Oc2ccccc21` (configuration not stated), for which the pIC50 in assay [1], in assay [3] and in assay [4] was below 4.22 in each case.
Regarding `NC(=O)C1CN(Cc2ccccn2)c2ccccc2O1` (configuration not stated), the pIC50 in assay [1] was below 4.22; in assay [3], 5.68; in assay [4] it was below 4.22.
On to `CCOC(=O)C1CNc2ccccc2O1` (configuration not stated), for which the pIC50 in assay [1], in assay [3] and in assay [4] was below 4.22 in each case.
